Measured values taken from US6624149B2, “Method for nucleic acid transfection of cells” (Genteric, Inc., priority 2000, dated 2003).

System: rat salivary gland (submandibular gland)
Assay: Intraductal transfection of rat salivary gland with pCMV.FOX.Luc-2, luciferase assay
Type: in vivo
Procedure: Nucleic acid/transition metal enhancer mixtures were prepared by sequentially adding deionized water or a buffered solution, DNA, and a desired transition metal enhancer to a polystyrene tube with mixing. “Free” (i.e., “Naked”) DNA controls were prepared by sequentially adding DNA to water or a buffered solution
Male Sprague-Dawley rats (260-280 g) were fasted the night prior to treatment. After administration of the anesthesia (see Section 6.1.3), both right and left salivary gland ducts (specifically, Wharton's duct) were cannulated with fine polyurethane tubing (i.d. 0.005″) and cemented into the desired location. Atropine was then administered subcutaneously (0.5 mg/kg) and, after eight minutes, 50 μl of the nucleic acid/transition metal enhancer mixture was injected, infused, instilled or administered at the ductal orifice or directly into the duct at any point along its length. See Goldfine, Nature Biotechnology 15:1378, 1997.
Regardless of whether a liposome/transition metal/nucleic acid mixture or a nucleic acid/transition metal enhancer mixture was delivered, the tubing and mixture was kept in place for ten additional minutes after application of the mixture prior to removal. At 48 hours post atropine administration, the rats were anesthetized by intraperitoneal injection of pentobarbital (50 mg/kg). The right and left submandibular glands were surgically removed, and the tissues were assayed for any observable reporter gene (luciferase of hGH) expression using the methods described below.
The presently claimed invention describes a new method using a combination of a transition metal enhancer and a nucleic acid of interest for gene delivery. The present invention provides a method which may enhance gene expression by improving the efficiency of gene delivery. This change in gene expression can be quantitated using various assays, such as the luciferase assay. de Wet et al., Molec. Cell Biol. 7:725, 1987. In various experiments described herein, the right and left submandibular glands were removed from the male Sprague-Dawley rats at 48 hours post administration of the pCMV.FOX.Luc-2 containing solution. In additional experiments other organs, such as the rat lungs, were used.
In experiments in which submandibular glands were tested, the amount of luciferase present in the right and left submandibular gland of each male Sprague-Dawley rat was measured independently and treated as separate, individual experiments (e.g., trials) because the amount of luciferase expressed by one submandibular gland is independent of the amount of luciferase expressed in the other submandibular gland. Therefore, each submandibular gland was independently lysed in lysis buffer (1.0 ml buffer per 0.1 g tissue) to create a lysis homogenate. The lysis buffer contained 100 mM K2PO4 pH 7.0, 1 mM dithiothreitol, and 1% Triton X-100. A 100 μl aliquot of lysis homogenate from each submandibular gland was analyzed for luciferase activity (de Wet et al., Molec. Cell Biol. 7:725, 1987) using a Monolight 2010 luminometer (Analytical Luminescence Laboratories). Accordingly, luciferase light emissions from each aliquot of the lysis homogenate were measured over a ten second period.
Activity was expressed as relative light units, values collectively representing the assay conditions, luciferase concentration, luminometer photomultiplier tube sensitivity and background. Using well known techniques, the luciferase light units may be converted, for example, to picograms of luciferase protein. See, e.g., Felgner et al., U.S. Pat. No. 5,580,899 at Example 13. All experiments were performed in duplicate. In experiments using submandibular glands, data from each individual submandibular gland lysis homogenate is reported as a single trial.

[Cl][Co][Cl] [CoCl2, cobalt chloride]
Average relative light units (Table 4, CoCl2 0.3 mM, 32 μg DNA in 50 μl, 48 hours): 37219 relative light units
Average relative light units (Table 4, CoCl2 0.9 mM, 32 μg DNA in 50 μl, 48 hours): 44926 relative light units

[Cl][Cu] [Cu, cuprous chloride]
Average relative light units (Table 3, metal chloride 0.6 mM, 32 μg DNA in 50 μl, Tris-HCl/EDTA, 48 hours, eight glands): 17667 relative light units
Average relative light units (Table 3, metal chloride 0.9 mM, 32 μg DNA in 50 μl, Tris-HCl/EDTA, 48 hours, eight glands): 42204 relative light units
Average relative light units (Table 3, metal chloride 1.2 mM, 32 μg DNA in 50 μl, Tris-HCl/EDTA, 48 hours, eight glands): 17194 relative light units

[Cl][Ni][Cl] [Ni, nickel chloride]
Average relative light units (Table 2, metal chloride 0.3 mM, 32 μg DNA in 50 μl, 48 hours, eight glands): 18391 relative light units
Average relative light units (Table 2, metal chloride 0.9 mM, 32 μg DNA in 50 μl, 48 hours, eight glands): 65121 relative light units

CC(=O)[O-].CC(=O)[O-].[Zn+2] [Zn(CH3CO2)2, zinc acetate]
Average relative light units (rat, in vivo): 309965 relative light units

O=S(=O)([O-])[O-].[Zn+2] [ZnSO4, zinc sulfate]
Average relative light units (Table 6, zinc 3.6 mM, 128 μg DNA in 50 μl, 48 hours): 355676 relative light units
